The term pIC50 denotes the IC50 on a negative log10 scale, so that one unit is a factor of ten.

This is an account of results in ChEMBL document CHEMBL5143600, “Discovery and optimization of betulinic acid derivatives as novel potent CD73 inhibitors” (Bioorg Med Chem, 2022).

pIC50: −log10 of the molar value. Activity calls are given as the source filed them. The calls are words filed in the database; no cut-off is given here.

T1 sequence (P21589 whole entry): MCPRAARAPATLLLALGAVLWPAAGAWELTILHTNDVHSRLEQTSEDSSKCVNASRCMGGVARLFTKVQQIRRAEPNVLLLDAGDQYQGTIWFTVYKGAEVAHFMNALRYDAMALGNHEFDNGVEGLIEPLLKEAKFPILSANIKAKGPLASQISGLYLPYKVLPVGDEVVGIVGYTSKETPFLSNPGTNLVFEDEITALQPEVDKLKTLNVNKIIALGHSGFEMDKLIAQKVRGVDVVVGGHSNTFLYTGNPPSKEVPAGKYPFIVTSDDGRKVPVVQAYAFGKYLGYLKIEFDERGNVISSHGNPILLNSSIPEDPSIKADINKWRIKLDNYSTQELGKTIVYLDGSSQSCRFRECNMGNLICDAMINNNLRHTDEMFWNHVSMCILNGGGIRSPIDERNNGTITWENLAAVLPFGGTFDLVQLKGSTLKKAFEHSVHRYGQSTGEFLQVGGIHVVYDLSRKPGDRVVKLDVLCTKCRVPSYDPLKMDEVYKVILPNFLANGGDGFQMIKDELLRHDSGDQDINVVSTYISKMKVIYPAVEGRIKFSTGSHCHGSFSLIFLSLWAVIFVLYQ

The first assay concerns the target T1, 5'-nucleotidase (Homo sapiens, UniProt P21589). Description: Potency index, ratio of betulinic acid IC50 to test compound IC50 for inhibition of human CD73 assessed as reduction in inorganic phosphate release upon substrate hydrolysis using AMP[…] as substrate incubated for 1 hr followed by substrate addition and measured after 2 hrs by malachite green reagent based colorimetric assay. The conditions noted are these: time 3.0 hrs.
In the case of `C=C(C)[C@@H]1CC[C@]2(C(=O)O)CC[C@]3(C)[C@H](CC[C@@H]4[C@@]5(C)CC[C@H](OC(=O)N6CCCCC6)C(C)(C)[C@@H]5CC[C@]43C)[C@@H]12`, the Ratio IC50 worked out at 5.2.
Still for that read-out and setting: then `C=C(C)[C@@H]1CC[C@]2(C(=O)O)CC[C@]3(C)[C@H](CC[C@@H]4[C@@]5(C)CC[C@H](OC(=O)NC(C)C)C(C)(C)[C@@H]5CC[C@]43C)[C@@H]12`, with 1.3.

In the next assay the test system is CD4+ve Th. Description: Induction of anti-CD3/CD28 antibodies-stimulated CD4-positive Th cell activation in C57BL/6J mouse assessed as reversal of AMP/EHNA-inhibited IFN-gamma production at 10 uM preincubated for 15 mins followed by AMP/EHNA addition and measured after 96 hrs by ELISA. Format: functional, cell-based. The conditions noted are these: time 5775.0 min. A general note: ELISA stands for enzyme-linked immunosorbent assay.
Regarding `C=C(C)[C@@H]1CC[C@]2(C(=O)O)CC[C@]3(C)[C@H](CC[C@@H]4[C@@]5(C)CC[C@H](O)C(C)(C)[C@@H]5CC[C@]43C)[C@@H]12` [BETULINIC ACID], the outcome was Active.
For the molecule `Nc1ncnc2c1ncn2[C@@H]1O[C@H](COP(=O)(O)CP(=O)(O)O)[C@@H](O)[C@H]1O`, the result was Active.

The subject of another assay is MIA PaCa-2. The assay is described as follows: Cytotoxicity against human MIA PaCa-2 cells assessed as inhibition of cell growth incubated for 72 hrs by CCK-8 assay. In kind it is functional, cell-based. The conditions noted are these: MIA PaCa-2, 72 h. (Tetrazolium assays rely on reduction of a dye to a coloured formazan, in cell work by metabolically active cells.)
Consider `Nc1ccn([C@@H]2O[C@H](CO)[C@@H](O)C2(F)F)c(=O)n1` [GEMCITABINE], for which the pIC50 was 6.44.
Still for that read-out and setting: next, `C=C(C)[C@@H]1CC[C@]2(C(=O)O)CC[C@]3(C)[C@H](CC[C@@H]4[C@@]5(C)CC[C@H](O)C(C)(C)[C@@H]5CC[C@]43C)[C@@H]12` [BETULINIC ACID]: 4.57.
As to `C=C(C)[C@@H]1CC[C@]2(C(=O)O)CC[C@]3(C)[C@H](CC[C@@H]4[C@@]5(C)CC[C@H](OC(=O)N6CCCCC6)C(C)(C)[C@@H]5CC[C@]43C)[C@@H]12`, the pIC50 is less than 4.00.
The same measure, in the same setting: next, `C=C(C)[C@@H]1CC[C@]2(C(=O)O)CC[C@]3(C)[C@H](CC[C@@H]4[C@@]5(C)CC[C@H](OC(=O)NC(C)C)C(C)(C)[C@@H]5CC[C@]43C)[C@@H]12`: 4.11.

System in the next assay: not listed separately
The assay is described as follows: Selectivity index, ratio of IC50 for inhibition of mose CD73 to IC50 for inhibition of human CD73.
Settings: not given
`C=C(C)[C@@H]1CC[C@]2(C(=O)O)CC[C@]3(C)[C@H](CC[C@@H]4[C@@]5(C)CC[C@H](OC(=O)N6CCCCC6)C(C)(C)[C@@H]5CC[C@]43C)[C@@H]12`: the Ratio IC50 was determined as 10.5.
The same measure, in the same setting: next, `C=C(C)[C@@H]1CC[C@]2(C(=O)O)CC[C@]3(C)[C@H](CC[C@@H]4[C@@]5(C)CC[C@H](OC(=O)N6CCNCC6)C(C)(C)[C@@H]5CC[C@]43C)[C@@H]12`: 2; `C=C(C)[C@@H]1CC[C@]2(C(=O)O)CC[C@]3(C)[C@H](CC[C@@H]4[C@@]5(C)CC[C@H](OC(=O)NC(C)C)C(C)(C)[C@@H]5CC[C@]43C)[C@@H]12`: 10.4.

The next assay concerns MDA-MB-231. The assay is described as follows: Cytotoxicity against human MDA-MB-231 cells assessed as inhibition of cell growth incubated for 72 hrs by CCK-8 assay. In kind it is functional, cell-based. To be noted: MDA-MB-231, 72 h.
Consider `Nc1ccn([C@@H]2O[C@H](CO)[C@@H](O)C2(F)F)c(=O)n1` [GEMCITABINE], for which the negative logarithm of the IC50 (pIC50) is 5.65.
Same read-out and setting: next, `C=C(C)[C@@H]1CC[C@]2(C(=O)O)CC[C@]3(C)[C@H](CC[C@@H]4[C@@]5(C)CC[C@H](O)C(C)(C)[C@@H]5CC[C@]43C)[C@@H]12` [BETULINIC ACID]: 4.72; `C=C(C)[C@@H]1CC[C@]2(C(=O)O)CC[C@]3(C)[C@H](CC[C@@H]4[C@@]5(C)CC[C@H](OC(=O)N6CCCCC6)C(C)(C)[C@@H]5CC[C@]43C)[C@@H]12`: less than 4.00.
Consider `C=C(C)[C@@H]1CC[C@]2(C(=O)O)CC[C@]3(C)[C@H](CC[C@@H]4[C@@]5(C)CC[C@H](OC(=O)NC(C)C)C(C)(C)[C@@H]5CC[C@]43C)[C@@H]12`, for which the pIC50 was less than 4.00.

In another assay the target is T2, 5'-nucleotidase (Mus musculus, UniProt Q61503).
T2 sequence (Q61503 whole entry): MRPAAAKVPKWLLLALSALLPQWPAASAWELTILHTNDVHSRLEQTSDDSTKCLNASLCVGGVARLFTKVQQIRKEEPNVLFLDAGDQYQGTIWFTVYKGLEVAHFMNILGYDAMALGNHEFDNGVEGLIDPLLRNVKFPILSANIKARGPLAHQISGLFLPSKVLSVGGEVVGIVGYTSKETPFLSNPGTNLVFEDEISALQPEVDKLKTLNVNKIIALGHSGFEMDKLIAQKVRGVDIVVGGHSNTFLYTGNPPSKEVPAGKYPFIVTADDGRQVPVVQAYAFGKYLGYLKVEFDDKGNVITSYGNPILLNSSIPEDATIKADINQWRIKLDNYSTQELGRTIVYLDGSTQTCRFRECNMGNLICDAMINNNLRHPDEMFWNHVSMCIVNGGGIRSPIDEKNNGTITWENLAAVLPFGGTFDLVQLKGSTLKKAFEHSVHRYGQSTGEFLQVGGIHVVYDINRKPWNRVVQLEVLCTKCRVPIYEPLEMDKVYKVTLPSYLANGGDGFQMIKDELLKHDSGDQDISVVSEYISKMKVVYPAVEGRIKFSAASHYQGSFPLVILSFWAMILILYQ
The assay is described as follows: Inhibition of mouse CD73 assessed as reduction in inorganic phosphate release upon substrate hydrolysis using AMP[…] as substrate incubated for 1 hr followed by substrate addition and measured after 2 hrs by malachite green reagent based colorimetric assay.
Settings: not given
In the case of `C=C(C)[C@@H]1CC[C@]2(C(=O)O)CC[C@]3(C)[C@H](CC[C@@H]4[C@@]5(C)CC[C@H](OC(=O)NCCN6CCOCC6)C(C)(C)[C@@H]5CC[C@]43C)[C@@H]12`, the pIC50 is less than 4.00.
Same read-out and setting: then `C=C(C)[C@@H]1CC[C@]2(C(=O)O)CC[C@]3(C)[C@H](CC[C@@H]4[C@@]5(C)CC[C@H](OC(=O)NCCO)C(C)(C)[C@@H]5CC[C@]43C)[C@@H]12`, with less than 4.00; and `C=C(C)[C@@H]1CC[C@]2(C(=O)O)CC[C@]3(C)[C@H](CC[C@@H]4[C@@]5(C)CC[C@H](O)C(C)(C)[C@@H]5CC[C@]43C)[C@@H]12` [BETULINIC ACID], with 4.16.
As to `C=C(C)[C@@H]1CC[C@]2(C(=O)O)CC[C@]3(C)[C@H](CC[C@@H]4[C@@]5(C)CC[C@H](OC(=O)N6CCC(N)CC6)C(C)(C)[C@@H]5CC[C@]43C)[C@@H]12`, the pIC50 was less than 4.00.
For `C=C(C)[C@@H]1CC[C@]2(C(=O)O)CC[C@]3(C)[C@H](CC[C@@H]4[C@@]5(C)CC[C@H](OC(=O)N6CCCCC6)C(C)(C)[C@@H]5CC[C@]43C)[C@@H]12`, the pIC50 is 4.83.
As to `C=C(C)[C@@H]1CC[C@]2(C(=O)O)CC[C@]3(C)[C@H](CC[C@@H]4[C@@]5(C)CC[C@H](OC(=O)N6CCN(C)CC6)C(C)(C)[C@@H]5CC[C@]43C)[C@@H]12`, the pIC50 was less than 4.00.
Same read-out and setting: then `C=C(C)[C@@H]1CC[C@]2(C(=O)O)CC[C@]3(C)[C@H](CC[C@@H]4[C@@]5(C)CC[C@H](OC(=O)N6CCNCC6)C(C)(C)[C@@H]5CC[C@]43C)[C@@H]12`, with 4.47.
Regarding `C=C(C)[C@@H]1CC[C@]2(C(=O)O)CC[C@]3(C)[C@H](CC[C@@H]4[C@@]5(C)CC[C@H](OC(=O)N6CCCC6)C(C)(C)[C@@H]5CC[C@]43C)[C@@H]12`, the pIC50 is less than 4.00.
As to `C=C(C)[C@@H]1CC[C@]2(C(=O)O)CC[C@]3(C)[C@H](CC[C@@H]4[C@@]5(C)CC[C@H](OC(=O)NC6CC6)C(C)(C)[C@@H]5CC[C@]43C)[C@@H]12`, the pIC50 is less than 4.00.
As to `C=C(C)[C@@H]1CC[C@]2(C(=O)O)CC[C@]3(C)[C@H](CC[C@@H]4[C@@]5(C)CC[C@H](OC(=O)N6CC(O)C6)C(C)(C)[C@@H]5CC[C@]43C)[C@@H]12`, the pIC50 is less than 4.00.
The same measure, in the same setting: then `C=C(C)[C@@H]1CC[C@]2(C(=O)O)CC[C@]3(C)[C@H](CC[C@@H]4[C@@]5(C)CC[C@H](OC(=O)NC(C)C)C(C)(C)[C@@H]5CC[C@]43C)[C@@H]12`, with 4.23.

The target of a further assay is T1, 5'-nucleotidase. The assay is described as follows: Inhibition of human CD73 assessed as reduction in inorganic phosphate release upon substrate hydrolysis using AMP[…] as substrate incubated for 1 hr followed by substrate addition and measured after 2 hrs by malachite green reagent based colorimetric assay.
Settings: not given
In the case of `C=C(C)[C@@H]1CC[C@]2(C(=O)O)CC[C@]3(C)[C@H](CC[C@@H]4[C@@]5(C)CC[C@H](OC(=O)NCCN6CCOCC6)C(C)(C)[C@@H]5CC[C@]43C)[C@@H]12`, the pIC50 is less than 4.00.
Still for that read-out and setting: then `C=C(C)[C@@H]1CC[C@]2(C(=O)O)CC[C@]3(C)[C@H](CC[C@@H]4[C@@]5(C)CC[C@H](OC(=O)NCCO)C(C)(C)[C@@H]5CC[C@]43C)[C@@H]12`, with 4.43; and `C=C(C)[C@@H]1CC[C@]2(C(=O)O)CC[C@]3(C)[C@H](CC[C@@H]4[C@@]5(C)CC[C@H](O)[C@@](C)(CO)[C@@H]5CC[C@]43C)[C@@H]12`, with less than 4.00.
The same measure, in the same setting: next, `C=C(C)[C@@H]1CC[C@]2(C(=O)O)CC[C@]3(C)[C@H](CC[C@@H]4[C@@]5(C)CC[C@H](O)C(C)(C)[C@@H]5CC[C@]43C)[C@@H]12` [BETULINIC ACID]: 5.14; `C=C(C)[C@@H]1CC[C@]2(C(=O)O)CC[C@]3(C)[C@H](CC[C@@H]4[C@@]5(C)CC[C@H](OC(=O)N6CCC(N)CC6)C(C)(C)[C@@H]5CC[C@]43C)[C@@H]12`: less than 4.00.
Still for that read-out and setting: next, `C=C(C)[C@@H]1CC[C@]2(C(=O)O)CC[C@]3(C)[C@H](CC[C@@H]4[C@@]5(C)CC[C@H](OC(=O)N6CCN(C)CC6)C(C)(C)[C@@H]5CC[C@]43C)[C@@H]12`: less than 4.00.
As to `C=C(C)[C@@H]1CC[C@]2(C(=O)O)CC[C@]3(C)[C@H](CC[C@@H]4[C@@]5(C)CC[C@H](OC(=O)N6CCNCC6)C(C)(C)[C@@H]5CC[C@]43C)[C@@H]12`, the pIC50 is 4.77.
`C=C(C)[C@@H]1CC[C@]2(C(=O)O)CC[C@]3(C)[C@H](CC[C@@H]4[C@@]5(C)CC[C@H](OC(=O)N6CCCC6)C(C)(C)[C@@H]5CC[C@]43C)[C@@H]12`: the negative logarithm of the IC50 (pIC50) was less than 4.00.
The same measure, in the same setting: next, `C=C(C)[C@@H]1CC[C@]2(C(=O)O)CC[C@]3(C)[C@H](CC[C@@H]4[C@@]5(C)CCC(=O)C(C)(C)[C@@H]5CC[C@]43C)[C@@H]12` [BETUNOLIC ACID]: 4.36; `C=C(C)[C@@H]1CC[C@]2(C(=O)O)CC[C@]3(C)[C@H](CC[C@@H]4[C@@]5(C)CC[C@H](OC(=O)NC6CC6)C(C)(C)[C@@H]5CC[C@]43C)[C@@H]12`: 4.09; `C=C(C)[C@@H]1CC[C@]2(C=O)CC[C@]3(C)[C@H](CC[C@@H]4[C@@]5(C)CC[C@H](O)C(C)(C)[C@@H]5CC[C@]43C)[C@@H]12` [BETULINALDEHYDE]: less than 4.00.
The same measure, in the same setting: next, `C=C(C)[C@@H]1CC[C@]2(C(=O)O)CC[C@]3(C)[C@H](CC[C@@H]4[C@@]5(C)CC[C@H](OC(=O)N6CC(O)C6)C(C)(C)[C@@H]5CC[C@]43C)[C@@H]12`: less than 4.00; `C=C(C)[C@@H]1CC[C@]2(C(=O)O)CC[C@]3(C)[C@H](CC[C@@H]4[C@@]5(C)CC[C@H](OC(=O)NC(C)C)C(C)(C)[C@@H]5CC[C@]43C)[C@@H]12`: 5.24.
